Measured values from US11464726B2, “1,4: 3,6 dianhydrohexitols for moisturising the skin” (ROQUETTE FRERES, priority 2017, dated 2022).

Tested on: surface layers of the skin (superficial stratum corneum)
Experiment: Moisturizing efficiency of gel evaluated by corneometry
Assay type: in vivo, human
Conditions: for mean hydration value (Corneometer capacitance): gel 6% by weight + 1% carbomer, around 2 mg/cm^2, inner forearm, ten volunteers; for Mean variations in % of hydration: (T…h-T0)/T0*100, gel 6% by weight
Procedure: For this, these polyols were incorporated into a cosmetic preparation for topical use in gel form. […] The placebo consists only of 1% by weight of gelling carbomer in water. The moisturizing efficiency of each of the preparations for topical use was evaluated by corneometry. Corneometry is a scientifically recognized method for measuring the hydration of the surface layers of the skin. It is based on the determination of the capacitance of the superficial stratum corneum. The study was carried out with ten healthy volunteers aged from 18 to 65 years old. The moisturizing efficiency of each of the five formulae was evaluated 1 hour, 2 hours and 4 hours after its application in the laboratory on the inner face of the forearm. […] For each formula, an amount of around 2 mg/cm^2 was applied to an area of 3×3 cm, in non-occlusive epicutaneous mode. In addition to the zones treated with the five formulae, two additional zones were evaluated: one treated with a placebo and the other without treatment for the duration of the study. The measurements were carried out with a Corneometer® CM285 included in a Multiprobe Adapter System MPA® (Courage-Khazaka GmbH, Germany). The instrument determines the capacitance of the epidermis, which is proportional to the water content thereof, at a depth of around 15 μm. This method is based on the difference between the electrical permittivity of the water which is 81 and that of other substances (<7). The probe of the Corneometer (surface area of 49 mm^2) is positioned perpendicular to the test area which was delimited beforehand with a pencil. The measurement of the capacitance lasts 1 second. Each measurement is carried out twice and the average of the two measurements is noted. The instrument gives the values in arbitrary units ranging from 0 to 130, with an error margin of ±3%. Each volunteer rested for around 1 minute in an air-conditioned room before each measurement with the Corneometer® in order to avoid abnormal results due to excessive perspiration or stress. Table 2 below reports the mean hydration values expressed in arbitrary units (AU).

Structure (SMILES) | mean hydration value (Corneometer capacitance) (T0, before application) | mean hydration value (Corneometer capacitance) (T1 h after application) | Mean variations in % of hydration (T1 h vs T0) | mean hydration value (Corneometer capacitance) (T2 h after application) | Mean variations in % of hydration (T2 h vs T0) | mean hydration value (Corneometer capacitance) (T4 h after application) | Mean variations in % of hydration (T4 h vs T0) | moisturizing power given to the gel (in words, short-term hydration and maintenance over time (T4h vs T0))
C[N+](C)(C)CC(=O)O [Betaine] | 43.39 AU | 55.61 AU | 28.2% | 54.30 AU | 25.1% | 50.74 AU | 16.9% | 
OC[C@@H](O)[C@H](O)[C@@H](O)CO [Xylitol] | 45.94 AU | 55.37 AU | 20.5% | 52.68 AU | 14.7% | 45.28 AU | −1.4% | 
OC[C@@H](O)[C@@H](O)[C@H](O)[C@@H](O)CO [Sorbitol] | 48.60 AU | 54.16 AU | 11.4% | 49.11 AU | 1.0% | 46.91 AU | −3.5% | 
O[C@@H]1CO[C@H]2[C@@H]1OC[C@@H]2O [Isosorbide, 1,4:3,6-dianhydrosorbitol] | 46.54 AU | 56.60 AU | 21.6% | 52.88 AU | 13.6% | 52.50 AU | 12.8% | satisfactory moisturizing power, comparable to that of betaine
OCC(O)CO [Glycerol] | 42.03 AU | 57.05 AU | 35.7% | 56.15 AU | 33.6% | 56.57 AU | 34.6% | 
